By EC50 is commonly meant the concentration that produces a half-maximal response.

Experiment [1] relates to alpha-synuclein phosphorylated at Ser129. Kind of experiment: Effect of PP2A methylation on alpha-synuclein dephosphorylation. It counts as biochemical, human. The procedure:
Concentrated samples of the methylated and unmethylated AC dimer of PP2A were each serially diluted to final concentrations of 200 nM, 100 nM, 50 nM, 25 nM, and 12 nM. A buffer sample (with 0 nM PP2A) was used as the negative control. The dephosphorylation assay and western blotting were performed as described above in Example 31 Western blots were scanned on a Storm Scanner (Molecular Dynamics) and band intensities quantified with Image Quant software. The relative phosphorylation levels were calculated with the following formula: Relative phosphorylation level (%)=Signal of Sample/Signal of Negative Control*100%. Regression curves of relative phosphorylation levels as a function of PP2A concentration were plotted, and the EC50 values for methylated and unmethylated PP2A were estimated using the SigmaPlot program. The EC50 is a measure of phosphatase activity or dephosphorylation activity of PP2A toward phosphorylated alpha-synuclein. Specifically, it is the concentration of the AC dimer required to achieve 50% dephosphorylation of phosphorylated alpha-synuclein. […] Specifically, methylation reduces the EC50 value of PP2A AC dimer from ˜60 nM to ˜20 nM.

The subject of experiment [2] is serine 129 phosphorylated alpha-synuclein. The experiment can be described thus: Dephosphorylation assay of human alpha-synuclein by PP2A and PP1. It is filed as biochemical. The following applies: Western blot. The procedure: Dephosphorylation Assay of Human a Synuclein by PP2A and PP1. […] PP2A or PP1 (serial dilutions of 200 nM, 100 nM, 50 nM, 25 nM, 12 nM, and O nM as a negative control) were incubated with serine 129 phosphorylated alpha-synuclein in MOPS buffer. The reactions were stopped by adding 5×SDS sample buffer. Levels of phosphorylated-alpha-synuclein were assessed by western blotting using an anti-phospho-Ser 129 antibody. […] Specifically, at 200 nM concentration, PP2A dephosphorylates more than 95% of the serine 129 phosphorylated alpha-synuclein.
For orientation: In western blotting, separated proteins are transferred to a membrane and probed.

Consider “PP2A: Protein phosphatase 2A, AC dimer (unmethylated or methylated), used as the enzyme dephosphorylating alpha-synuclein”, for which the 50% effective concentration (EC50) in experiment [1] (methylated AC dimer) is approximately 20 nM; in experiment [1] (unmethylated AC dimer), approximately 60 nM. In experiment [2] (200 nM phosphatase), the “dephosphorylation of serine 129 phosphorylated alpha-synuclein” value is given as “more than 95%”. Further, in experiment [2] (12-200 nM phosphatase), the “dephosphorylation of phosphorylated alpha-synuclein (concentration dependence)” value is reported as “concentration dependent manner”.
